These results are taken from the Kinase Knowledgebase extract (Sharma et al. 2016).

Test [1] has as its target EGFR (Human), P00533 [Assessment of EGFR-Del T790M Dependent Cell Proliferation in BaF3 Cells].
The target of another test is EGFR (human) (UniProt P00533).
Test [2] has as its target EGFR (Human), P00533 [T790M/L858R]. The following applies: baf3.
Test [3] has the same target.
Test [4] addresses EGFR (human), P00533 [L858R].

What is called IC50 is the concentration at which inhibition is half-maximal.

The structures appear in SMILES notation.

Sequence of EGFR (human), P00533 [L858R] (P00533 whole entry L858R, looked up): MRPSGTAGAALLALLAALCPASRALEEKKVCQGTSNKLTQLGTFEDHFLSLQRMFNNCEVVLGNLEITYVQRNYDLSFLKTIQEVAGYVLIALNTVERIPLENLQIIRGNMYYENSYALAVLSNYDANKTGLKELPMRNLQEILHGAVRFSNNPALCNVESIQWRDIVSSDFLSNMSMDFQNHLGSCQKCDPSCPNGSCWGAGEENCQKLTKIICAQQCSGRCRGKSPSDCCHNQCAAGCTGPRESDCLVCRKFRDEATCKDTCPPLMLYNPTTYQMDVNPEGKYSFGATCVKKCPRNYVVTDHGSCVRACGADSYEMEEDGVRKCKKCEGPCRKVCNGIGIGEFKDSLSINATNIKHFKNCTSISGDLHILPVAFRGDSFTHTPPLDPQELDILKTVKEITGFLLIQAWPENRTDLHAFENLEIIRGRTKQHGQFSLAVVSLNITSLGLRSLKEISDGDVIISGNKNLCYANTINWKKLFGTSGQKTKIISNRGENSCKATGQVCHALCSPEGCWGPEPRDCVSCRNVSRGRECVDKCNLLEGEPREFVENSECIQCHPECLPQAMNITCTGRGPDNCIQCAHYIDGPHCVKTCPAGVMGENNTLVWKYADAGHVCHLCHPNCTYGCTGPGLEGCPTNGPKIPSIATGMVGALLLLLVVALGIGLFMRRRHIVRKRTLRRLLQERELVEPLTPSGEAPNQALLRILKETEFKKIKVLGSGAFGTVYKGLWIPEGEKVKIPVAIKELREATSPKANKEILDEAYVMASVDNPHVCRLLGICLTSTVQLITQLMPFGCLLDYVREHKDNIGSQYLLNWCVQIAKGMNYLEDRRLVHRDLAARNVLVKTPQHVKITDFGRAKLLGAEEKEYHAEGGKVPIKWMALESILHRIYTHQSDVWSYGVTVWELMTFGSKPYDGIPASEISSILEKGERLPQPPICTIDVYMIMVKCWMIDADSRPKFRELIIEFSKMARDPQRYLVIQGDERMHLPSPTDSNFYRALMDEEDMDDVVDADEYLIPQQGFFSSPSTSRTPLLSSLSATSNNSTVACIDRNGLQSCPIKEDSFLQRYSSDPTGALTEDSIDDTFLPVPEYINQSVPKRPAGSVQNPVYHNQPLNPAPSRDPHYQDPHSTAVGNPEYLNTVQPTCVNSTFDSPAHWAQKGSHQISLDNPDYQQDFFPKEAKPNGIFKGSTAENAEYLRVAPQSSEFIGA
Sequence of EGFR (Human), P00533 [Assessment of EGFR-Del T790M Dependent Cell Proliferation in BaF3 Cells] (P00533 whole entry, looked up, stated change not applied): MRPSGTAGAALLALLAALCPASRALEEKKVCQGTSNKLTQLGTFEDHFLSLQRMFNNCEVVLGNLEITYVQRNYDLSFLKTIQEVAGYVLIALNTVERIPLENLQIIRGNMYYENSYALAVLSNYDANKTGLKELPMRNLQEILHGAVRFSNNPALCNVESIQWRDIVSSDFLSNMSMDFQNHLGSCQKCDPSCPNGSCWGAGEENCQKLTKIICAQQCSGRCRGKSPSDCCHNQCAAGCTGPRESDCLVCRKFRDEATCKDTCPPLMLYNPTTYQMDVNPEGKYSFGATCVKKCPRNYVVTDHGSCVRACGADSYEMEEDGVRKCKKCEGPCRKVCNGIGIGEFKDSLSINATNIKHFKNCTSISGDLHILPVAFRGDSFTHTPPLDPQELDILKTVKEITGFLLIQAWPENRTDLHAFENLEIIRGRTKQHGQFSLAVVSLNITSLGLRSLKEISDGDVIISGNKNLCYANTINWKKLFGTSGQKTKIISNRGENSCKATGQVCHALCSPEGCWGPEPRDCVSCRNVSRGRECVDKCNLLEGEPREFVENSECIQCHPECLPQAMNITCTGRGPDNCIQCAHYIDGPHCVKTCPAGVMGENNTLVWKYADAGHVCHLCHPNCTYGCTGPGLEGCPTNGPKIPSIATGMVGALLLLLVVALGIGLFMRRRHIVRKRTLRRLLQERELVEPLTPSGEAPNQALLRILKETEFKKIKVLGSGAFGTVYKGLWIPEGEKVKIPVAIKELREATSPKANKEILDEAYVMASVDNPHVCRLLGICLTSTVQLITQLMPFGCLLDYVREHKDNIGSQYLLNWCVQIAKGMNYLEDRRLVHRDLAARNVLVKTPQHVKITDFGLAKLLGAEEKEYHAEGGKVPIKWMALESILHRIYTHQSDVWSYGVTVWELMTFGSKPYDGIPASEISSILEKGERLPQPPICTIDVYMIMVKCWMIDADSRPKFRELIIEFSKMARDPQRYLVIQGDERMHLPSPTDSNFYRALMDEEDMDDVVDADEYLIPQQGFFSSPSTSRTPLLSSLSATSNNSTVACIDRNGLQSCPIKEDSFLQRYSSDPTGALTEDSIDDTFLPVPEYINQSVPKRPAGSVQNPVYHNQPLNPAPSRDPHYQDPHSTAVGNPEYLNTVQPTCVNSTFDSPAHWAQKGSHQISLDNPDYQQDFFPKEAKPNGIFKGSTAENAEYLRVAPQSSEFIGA
Sequence of EGFR (human) (P00533 whole entry, looked up): as the sequence (P00533 whole entry, looked up, stated change not applied) above
Sequence of EGFR (Human), P00533 [T790M/L858R] (P00533 whole entry T790M/L858R, looked up): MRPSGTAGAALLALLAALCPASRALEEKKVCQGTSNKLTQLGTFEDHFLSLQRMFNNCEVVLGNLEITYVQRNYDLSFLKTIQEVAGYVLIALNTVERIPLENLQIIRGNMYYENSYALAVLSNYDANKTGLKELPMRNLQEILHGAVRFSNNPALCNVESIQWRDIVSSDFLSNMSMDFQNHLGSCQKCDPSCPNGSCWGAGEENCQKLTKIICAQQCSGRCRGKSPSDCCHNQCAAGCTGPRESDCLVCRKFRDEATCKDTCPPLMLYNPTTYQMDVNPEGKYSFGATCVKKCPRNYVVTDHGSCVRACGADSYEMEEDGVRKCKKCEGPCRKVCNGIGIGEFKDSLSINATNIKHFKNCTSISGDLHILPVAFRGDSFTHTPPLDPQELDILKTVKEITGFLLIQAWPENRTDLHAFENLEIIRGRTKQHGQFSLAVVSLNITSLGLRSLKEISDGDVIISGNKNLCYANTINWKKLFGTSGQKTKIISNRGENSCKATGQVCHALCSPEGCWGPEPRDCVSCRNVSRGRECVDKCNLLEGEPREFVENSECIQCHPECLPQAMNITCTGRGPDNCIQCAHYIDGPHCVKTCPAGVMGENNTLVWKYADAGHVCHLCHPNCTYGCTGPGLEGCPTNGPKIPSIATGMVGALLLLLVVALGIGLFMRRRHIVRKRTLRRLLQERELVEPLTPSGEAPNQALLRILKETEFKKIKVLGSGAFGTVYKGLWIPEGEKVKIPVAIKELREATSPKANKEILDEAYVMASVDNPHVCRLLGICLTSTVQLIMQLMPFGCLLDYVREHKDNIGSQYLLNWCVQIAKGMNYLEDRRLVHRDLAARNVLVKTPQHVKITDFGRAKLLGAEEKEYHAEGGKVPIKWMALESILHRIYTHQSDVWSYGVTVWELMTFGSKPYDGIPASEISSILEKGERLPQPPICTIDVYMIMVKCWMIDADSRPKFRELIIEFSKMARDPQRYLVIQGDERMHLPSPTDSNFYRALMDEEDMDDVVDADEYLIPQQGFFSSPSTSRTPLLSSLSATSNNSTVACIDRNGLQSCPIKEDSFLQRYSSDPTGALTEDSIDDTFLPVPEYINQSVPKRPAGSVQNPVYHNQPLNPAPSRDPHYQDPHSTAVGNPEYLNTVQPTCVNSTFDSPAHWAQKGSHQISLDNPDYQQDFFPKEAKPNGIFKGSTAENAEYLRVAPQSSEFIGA

Consider `C=C(CN1CCCC1)C(=O)Nc1ccc(OC)c(Nc2ncc(Cl)c(Nc3ccccc3P(C)(C)=O)n2)c1`, for which the IC50 (in test [1]; against EGFR (human); in test [2]; in test [3]; in test [4]) was less than 50 nM each time.
As for `C=CC(=O)Nc1cc(Nc2ncc(Cl)c(Nc3ccccc3P(C)(C)=O)n2)c(OC)cc1N1CCC(N2CCCC2)C1` (stereo not given), the IC50 (in test [1]; on EGFR (human); in test [2]; in test [3]; in test [4]) was less than 50 nM each time.
Take `C=CC(=O)Nc1cc(Nc2ncc(Cl)c(Nc3ccccc3P(C)(C)=O)n2)c(CC)cc1C#CCN(C)C`: the IC50 (in test [1]; against EGFR (human); in test [2]; in test [3]; in test [4]) was less than 50 nM each time.
Turning to `COc1cc(F)c(NC(=O)CCl)cc1Nc1ncc(Cl)c(Nc2ccccc2P(C)(C)=O)n1`, the IC50 (in test [1]; on EGFR (human); in test [2]; in test [3]; in test [4]) was less than 50 nM throughout.
Take `C=CC(=O)Nc1cc(Nc2ncc(Cl)c(Nc3ccccc3P(C)(C)=O)n2)c(OC)cc1N1CCCC(N(C)C)C1` (stereo not given): the IC50 (in test [1]; against EGFR (human); in test [2]; in test [3]; in test [4]) was less than 50 nM each time.
As for `COc1ccc(NC(=O)CCl)cc1Nc1ncc(Cl)c(Nc2ccccc2P(C)(C)=O)n1`, the IC50 (in test [1]; against EGFR (human); in test [2]; in test [3]; in test [4]) was less than 50 nM each time.
Consider `C=CC(=O)Nc1cc(Nc2ncc(Cl)c(Nc3ccccc3P(C)(C)=O)n2)c(OC)cc1C#CCN(C)CC`, for which the IC50 (in test [1]; on EGFR (human); in test [2]; in test [3]; in test [4]) was less than 50 nM throughout.
For `C=CC(=O)Nc1cc(Nc2ncc(Cl)c(Nc3ccccc3P(C)(C)=O)n2)c(OC)cc1C#CCN1CCN(C)CC1`, the IC50 in test [1] was less than 50 nM; on EGFR (human), less than 50 nM; in test [2], 101 to 250 nM; in test [3] it was less than 50 nM; in test [4], less than 50 nM.
For the molecule `C=CC(=O)Nc1cc(Nc2ncc(Cl)c(Nc3ccccc3P(C)(C)=O)n2)c(Cl)cc1C#CCN(C)C`, the IC50 (in test [1]; against EGFR (human); in test [2]; in test [3]; in test [4]) was less than 50 nM in each case.
`C=CC(=O)Nc1ccc(OC)c(Nc2ncc(OC)c(Nc3ccccc3P(C)(C)=O)n2)c1`: the half-inhibitory concentration (IC50) in test [1] was less than 50 nM; against EGFR (human) it was 50 to 100 nM; in test [2] it was 50 to 100 nM; in test [3] it was less than 50 nM; in test [4] it was less than 50 nM.
As for `C=CC(=O)Nc1cc(Nc2ncc(Cl)c(Nc3ccccc3P(C)(C)=O)n2)c(OC)cc1N1CCC(N2CCCCC2)C1` (stereo not given), the IC50 (in test [1]; at EGFR (human); in test [2]; in test [3]; in test [4]) was less than 50 nM each time.
Regarding `C=CC(=O)Nc1cc(Nc2ncc(Cl)c(Nc3ccccc3P(C)(C)=O)n2)c(OC)cc1OCCN1CCOCC1`, the IC50 is 50 to 100 nM in test [1]; less than 50 nM at EGFR (human); 101 to 250 nM in test [2]; less than 50 nM in test [3]; less than 50 nM in test [4].
Consider `C=CC(=O)Nc1cc(Nc2ncc(Cl)c(Nc3ccccc3P(C)(C)=O)n2)c(C)cc1C#CCN(C)C`, for which the 50% inhibitory concentration (IC50) (in test [1]; against EGFR (human); in test [2]; in test [3]; in test [4]) was less than 50 nM each time.
As to `C=CC(=O)Nc1cc(Nc2ncc(Cl)c(Nc3ccccc3P(C)(C)=O)n2)c(OC)cc1N1CCC(N2CCOCC2)C1` (stereo not given), the IC50 (in test [1]; at EGFR (human); in test [2]; in test [3]; in test [4]) was less than 50 nM each time.
With `C=CC(=O)Nc1cc(Nc2ncc(Cl)c(Nc3ccccc3P(C)(C)=O)n2)c(OC)cc1C#CCN(C)CCOC`, the IC50 (in test [1]; against EGFR (human); in test [2]; in test [3]; in test [4]) was less than 50 nM in each case.
For the molecule `C=CC(=O)Nc1cc(Nc2ncc(Cl)c(Nc3ccccc3P(C)(C)=O)n2)c(OC)cc1N1CC[C@@H](N(C)C)C1`, the IC50 (in test [1]; against EGFR (human); in test [2]; in test [3]; in test [4]) was less than 50 nM in each case.
`C=CC(=O)Nc1cc(Nc2ncc(Cl)c(Nc3ccccc3P(C)(C)=O)n2)c(OC)cc1N1CCC(N2CCCCC2)CC1`: the concentration for half-maximal inhibition (IC50) (in test [1]; on EGFR (human); in test [2]; in test [3]; in test [4]) was less than 50 nM each time.
For `C=CC(=O)Nc1cc(Nc2ncc(Cl)c(Nc3ccccc3P(C)(C)=O)n2)c(OC)cc1N1CCC(N(C)CCOC)C1` (stereo not given), the IC50 (in test [1]; against EGFR (human); in test [2]; in test [3]; in test [4]) was less than 50 nM in each case.
Consider `C=CC(=O)Nc1cc(Nc2ncc(Cl)c(Nc3ccccc3P(C)(C)=O)n2)c(OC)cc1C#CCN(C)C(C)C`, for which the IC50 (in test [1]; against EGFR (human); in test [2]; in test [3]; in test [4]) was less than 50 nM each time.
As to `C=CC(=O)Nc1cc(Nc2ncc(Cl)c(Nc3ccccc3P(C)(C)=O)n2)c(OC)cc1C#CCN(C(C)C)C(C)C`, the half-inhibitory concentration (IC50) (in test [1]; against EGFR (human); in test [2]; in test [3]; in test [4]) was less than 50 nM throughout.
Regarding `C=CC(=O)Nc1ccc(OC)c(Nc2ncc(Cl)c(Nc3ccc(OCCN4CCCCC4)cc3P(C)(C)=O)n2)c1`, the IC50 (in test [1]; against EGFR (human); in test [2]; in test [3]; in test [4]) was less than 50 nM throughout.
Consider `COCCC#CC(=O)Nc1cc(Nc2ncc(Cl)c(Nc3ccccc3P(C)(C)=O)n2)c(OC)cc1N1CCOCC1`, for which the IC50 (in test [1]; at EGFR (human); in test [2]; in test [3]; in test [4]) was less than 50 nM each time.
`COc1cc(F)c(NC(=O)/C=C/Cl)cc1Nc1ncc(Cl)c(Nc2ccccc2P(C)(C)=O)n1`: the IC50 (in test [1]; on EGFR (human); in test [2]; in test [3]; in test [4]) was less than 50 nM throughout.
On to `C=CC(=O)Nc1ccc(OC)c(Nc2ncc(Cl)c(Nc3ccc(OCCOC)cc3P(C)(C)=O)n2)c1`, for which the IC50 was less than 50 nM in test [1]; 50 to 100 nM against EGFR (human); 50 to 100 nM in test [2]; less than 50 nM in test [3]; less than 50 nM in test [4].
`C=CC(=O)Nc1ccc(OC)c(Nc2ncc(Cl)c(Nc3ccc(OCCN(C)C)cc3P(C)(C)=O)n2)c1`: the IC50 (in test [1]; on EGFR (human); in test [2]; in test [3]; in test [4]) was less than 50 nM throughout.
